This is an account of results in paper PMC12916826 (Nature Communications, 2026).

In one data set the target is T1, hGAT3-C316S (Homo sapiens, UniProt P48066, C316S).
T1 sequence (P48066 1-632 C316S): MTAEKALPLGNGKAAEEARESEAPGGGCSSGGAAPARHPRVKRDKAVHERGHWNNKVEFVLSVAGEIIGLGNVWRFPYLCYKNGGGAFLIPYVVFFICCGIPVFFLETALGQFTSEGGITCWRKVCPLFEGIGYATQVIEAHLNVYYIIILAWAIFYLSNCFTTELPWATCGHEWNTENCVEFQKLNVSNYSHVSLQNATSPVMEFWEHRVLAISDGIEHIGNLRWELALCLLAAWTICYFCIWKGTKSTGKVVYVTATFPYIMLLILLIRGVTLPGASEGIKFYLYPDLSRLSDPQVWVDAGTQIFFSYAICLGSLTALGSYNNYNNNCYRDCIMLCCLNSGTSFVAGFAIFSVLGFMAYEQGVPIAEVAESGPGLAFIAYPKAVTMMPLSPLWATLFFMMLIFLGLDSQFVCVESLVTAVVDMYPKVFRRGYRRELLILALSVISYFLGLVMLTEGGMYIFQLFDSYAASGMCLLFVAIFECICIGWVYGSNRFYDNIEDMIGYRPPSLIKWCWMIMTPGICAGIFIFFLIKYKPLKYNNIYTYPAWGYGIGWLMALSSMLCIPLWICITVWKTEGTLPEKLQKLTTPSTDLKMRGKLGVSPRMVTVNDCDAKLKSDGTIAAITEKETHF
The data set is described as follows: [3H]GABA competition uptake assay, hGAT3-C316S mutant in HEK293T cells. It is filed as cell-based.

Data set [1] has as its target T2, hGAT3 (Homo sapiens, UniProt P48066).
T2 sequence (P48066 1-632): T1 sequence (P48066 1-632 C316S) with S316C
The data set is described as follows: [3H]GABA competition uptake assay, wild-type hGAT3 in HEK293T cells. It is filed as cell-based.

The target in the next data set is T3, hGAT3-eGFP (Homo sapiens, UniProt P48066).
T3 sequence (P48066 1-632): T1 sequence (P48066 1-632 C316S) with S316C
The data set is described as follows: Confocal microscopy of membrane-localized hGAT3-eGFP fluorescence. The format is cell-based. The settings on record: 100 µM SR-THAP; 1 h incubation; versus buffer.

The target of data set [2] is T2, hGAT3. The data set is described as follows: FLIPR membrane potential. It is filed as cell-based.
Data set [3] has as its target T2, hGAT3. Put plainly: [3H]GABA uptake kinetic. The format is cell-based. The following applies: with and without preincubation.
The conditions of data set [4]: cited from earlier work.
The conditions of data set [5]: cited from earlier work. The source holds these as a separate data set.
For data set [6] the following is noted: cited from earlier work. This is another data set of the same source.
For data set [7] the following is noted: cited from earlier work. This is another data set of the same source.
The subject of another data set is mice with stroke. The following applies: cited from earlier work.

Where a chain is given by its changes, count along the chain named. Where two headings read alike, the source gives them in different places.

In the case of `COc1ccc(C(/C=C/CN2CCC[C@@H]2[C@H](O)C(=O)O)(c2ccc(OC)cc2)c2ccc(OC)cc2)cc1` [SR-THAP, (2S, 2′R)−2-hydroxy-2-(1-((E)−4,4,4-tris(4-methoxyphenyl)but-2-en-1-yl)pyrrolidin-2′-yl)acetic acid], the IC50 is 10.6 µM on hGAT3-C316S (read-out: IC50, inhibition of [3H]GABA uptake by hGAT3-C316S, 120 min preincubation) and 4.9 µM at hGAT3 [1] (read-out: IC50, inhibition of [3H]GABA uptake by hGAT3, 120 min preincubation (with preincubation), HEK293T cells). Further, on hGAT3 [1] (from preincubation time course), the “time to equilibrium between extracellular and cytosolic compound” value is no more than 15 min. Further, at hGAT3 [1] (versus without preincubation), the “increase in potency after 120-min preincubation” value is recorded as “five-fold”. For the same compound, at hGAT3-eGFP, the “surface expression of hGAT3 (membrane-localized eGFP fluorescence)” value was “No difference”. Besides, the “substrate-like response / transport in FMP assay” value on hGAT3 [2] (50 µM GABA, 20 µM SR-THAP, compared with buffer) was “no substrate-like response”. In addition, the “mode of inhibition (FMP Michaelis-Menten kinetics)” value on hGAT3 [2] (absence of preincubation) is reported as “non-competitive”. Moreover, the “mode of inhibition ([3H]GABA uptake kinetics)” value at hGAT3 [3] is “non-competitive”.

In the case of `NCCCC(=O)O` [GABA, γ-Aminobutyric acid, reference compound], the IC50 was 4.2 µM on hGAT3-C316S and 6.9 µM on hGAT3 [1].

As for `COc1ccc(C(OCCN2CCC[C@H](C(=O)O)C2)(c2ccc(OC)cc2)c2ccc(OC)cc2)cc1` [(S)-SNAP-5114, (S)−1-{2-[Tris(4-methoxyphenyl)methoxy]ethyl}piperidine-3-carboxylic acid], in data set [4], the “brain uptake after systemic administration” value is reported as “limited”. Further, the cellular toxicity entry in [5] was “cellular toxicity”. In data set [6], the solubility entry is “limited”. Further, in data set [7], the chemical stability result is given as “poor”. The in vivo toxicity entry in the data set with mice with stroke was “severe in vivo toxicity”.

For orientation: IC50 means the point on the concentration scale where inhibition reaches its midpoint.
